Measurements as given in patent US20040022734A1, “Dihydroporphyrin derivatives and their uses” (priority 2000, published 2004).

Experiments:
[1] = test system: C6 cells; experiment: Phototoxicity of SIMO1 on C6 cells (laser irradiation, MTT count); assay type: cell-based; details: 20 joules/cm^2 diode laser
Protocol: C6 cells were cultured in flasks of 25 cm^2 (Polylabo, Strasbourg, France) in an RPMI medium supplemented with 10% (V/V) of fetal calf serum (FCS), 100 units of penicillin mL^−1, […] of streptomycin and 2 mM of glutamine.
The cells were replicated by dispersion culturing with 0.025% of trypsin in 0.02% ethylene-diaminotetracetic acid (EDTA) for a contact time of 2 minutes and returned to adhere at a dilution of 1:3, which maintain the cells in the exponential phase of growth. The cells were verified on a regular basis by contamination of the mycoplasms.
The cells thus cultivated were subjected to a photodynamic treatment. Aliquots (11 μl) of the photosensitizing solution SIMO1 were added to C6 cells adhered in wells of plates with 96 wells after trypsonation, as described above. The cellular concentration was 5.10^4 cells/ml^−1 (100 μl per well). The final concentration of the solutions of SIMO1 was comprised within the range of 0.5 to 50 μg/ml. Immediately after addition of the photosensitizer SIMO1, the plates of cells were held in complete darkness till the time of counting, except for a laser irradiation of the cells treated with PDT. The fresh medium containing FCS but free from photosensitizer was prepared before laser irradiation. […]
The optical density of each well of the microplates was then read at 570 nm by means of a Uniskan Titertack (Flow Laboratories, Puteaux, France). […]

[2] = test system: C6 cells; experiment: Toxicity of SIMO1 on non-irradiated C6 cells (MTT count); assay type: cell-based
Protocol: C6 cells were cultured in flasks of 25 cm^2 (Polylabo, Strasbourg, France) in an RPMI medium supplemented with 10% (V/V) of fetal calf serum (FCS), 100 units of penicillin mL^-1, […] of streptomycin and 2 mM of glutamine. The cells were replicated by dispersion culturing with 0.025% of trypsin in 0.02% ethylene-diaminotetracetic acid (EDTA) for a contact time of 2 minutes and returned to adhere at a dilution of 1:3, which maintain the cells in the exponential phase of growth. The cells were verified on a regular basis by contamination of the mycoplasms. The cells thus cultivated were subjected to a photodynamic treatment. Aliquots (11 μl) of the photosensitizing solution SIMO1 were added to C6 cells adhered in wells of plates with 96 wells after trypsonation, as described above. The cellular concentration was 5.10^4 cells/ml^-1 (100 μl per well). The final concentration of the solutions of SIMO1 was comprised within the range of 0.5 to 50 μg/ml. Immediately after addition of the photosensitizer SIMO1, the plates of cells were held in complete darkness till the time of counting, except for a laser irradiation of the cells treated with PDT. The fresh medium containing FCS but free from photosensitizer was prepared before laser irradiation. A laser with a diode at 650 nm was used. The power of the end of the fiber was adjusted, by using a device for measuring power (Coherent, France), at 500 mW. The light was transmitted to the target by an optical fiber at a distance of 20 mm so as to irradiate the cells in the wells 6 mm in diameter within a single field providing an illumination of all of the region. The time of exposure was 13 seconds per well at 650 nm, supplying an energy density of 20 J/cm^2. The cells were incubated with SIMO1 for 5 or 20 hours. For phototoxicity tests, the cells were washed and the medium was replaced immediately before laser irradiation. […] The optical density of each well of the microplates was then read at 570 nm by means of a […] […]

[3] = test system: C6 cells; experiment: Intracellular localization and pharmacokinetics in C6 cells by fluorescent imaging; assay type: cell-based; details: FIG. 3; for Incorporation at one hour of incubation (intracellular fluorescence): 1 hour
Protocol: So as to confirm the potential use of the mentioned compounds for the production of a photosensitive composition administrable to a living creature and useful as an agent adapted to give rise, under the influence of irradiation, to cytolysis or necrosis at least partially of at least one target region of the human or animal body, a visualization was conducted of the localization in vitro of the SIMO1 molecule, as well as the determination of the pharmacokinetics compared to m-THPC, by fluorescent imaging so as to confirm that the mentioned compounds were capable of penetrating the cells. Thus, C6 cells were seeded at a rate of 10^5 cells/ml on circular glass plates after trypsinization. After 24 hours, cells were incubated with SIMO1 (10 μg/ml) at 37° C. for 3 hours and then washed with PBS (pH 7.2). Fluorescence analysis of SIMO1 (emitting at 650 nm) was carried out after excitation of 450 nm to 480 nm with a 150 watt Xenon lamp by using a black and white video camera with very sensitive detection of photons (Kappa CF 8/4; Fischer Scientific S.A., France), connected to an optical microscope (Olympus BX 40, France) provided with an oil immersion objective magnifying 100 times.

[4] = test system: cellular tumor HT29 obtained initially from human colorectal adenocarcinoma; experiment: In vivo phototoxicity: growth of HT29 tumor grafts in nude mice after injection and laser irradiation; details: for Activity on tumor growth, SIMO1 versus m-THPC: 2 mg/kg intra-peritoneal, irradiation 6 hours and 12 hours after injection, FIG. 5
Protocol: To establish these conclusions, the following procedure was used: Swiss male nude/nude mice aged 7 to 9 weeks (weight range 25-35 g) were obtained from Iffa-Credo (L'arbresle, France).
The test method is that of the cellular tumor HT29 obtained initially from human colorectal adenocarcinoma.
The tumor grafts were obtained as follows: nonnecrotic solid tumor tissues (diameter 1 to 2 cm) were removed immediately after death of the donor mouse and then mechanically crushed in 1 ml of a 0.9% saline solution. This solution (0.2 ml) was injected sub-cutaneously into the rear paw of each mouse. This tumor was used one week later, when its diameter was 18-20 mm. […] The wavelength was illumination was selected between 652-653 nm.
The light source was a diode laser at 652 nm.
The luminous density was maintained below 0.3 W.cm^−2, at doses at which the thermal effects are indetectable. A single irradiation was carried out and the time of exposure was calculated as a function of the diameter of the tumor to obtain an energy density of 300 J/cm^−2 at a predetermined constant light density.
Each day, the index of tumor growth was measured by using a slide foot, the principal orthogonal diameters being added and divided by a factor of 2.
A statistical characteristic of the growth index between treated and control mice (without light or SIMO1) was carried by using the Student test.

[5] = In vivo spectrofluorimetric measurement of incorporation and retention in muscle, skin and tumor of mice grafted with HT-29; details: 2 mg/kg
Protocol: For these tests, the following was the procedure: spectrofluorimetric measurements were carried out on mice grafted with HT-29 at different intervals of time after injection of 2 mg/kg^−1 of m-THPC or SIMO1. The tested times were 3, 6, 12, 24, 48 and 144 hours on mice.
The level of fluorescence were recorded in different tissues, namely the muscle, the skin and the tumor. The measurements were taken by using an optical fiber placed directly in contact with the tissues. At least four spectra per tissue and per mouse were recorded (at least five mice were used for each experimental condition). Muscle, skin and tumor were successively studied.
The emission spectra of fluorescence of untreated mice tissue were recorded at three separate times so as to estimate the intermouse variations. The values of fluorescent intensity mentioned in FIG. 6 correspond for each organ to the result of the difference between the value of fluorescence obtained in a treated mouse and the value of fluorescence recorded in the control group. The results of spectrofluorometric measurement in vivo were expressed in beats per second (arbitrary unit).

Molecule | DL50, phototoxic treatment ([1]; 5 hours of incubation) [µg/mL] | DL50, phototoxic treatment ([1]; 20 hours of incubation) [µg/mL] | DL50, toxicity (non-irradiated) [2] [µg/mL] | SIMO1 toxicity (non-irradiated) ([2]; C6 cells, 5 hours of incubation, no irradiation) | Concentration short of which harmless in the absence of luminous irradiation ([2]; C6 cells, no irradiation) | Incorporation at one hour of incubation (intracellular fluorescence) [3] | Time of maximum intracellular concentration (fluorescence) after incubation [3] | Activity on tumor growth, SIMO1 versus m-THPC [4] | Retardation between intra-peritoneal injection and laser irradiation giving the most marked effects ([4]; 5 mg/kg intra-peritoneal, 300 J/cm^2, FIG. 4) [h] | Slowing of growth of the tumor ([4]; HT-29 grafted nude mice, 5 mg/kg intra-peritoneal, 12 hours between injection and irradiation, 300 J/cm^2 at 652 nm, twelve days after treatment) [%] | Growth of the tumor compared to the untreated control group ([4]; all tested conditions: irradiation 2, 6, 12, 24, 48 hours after 5 mg/kg intra-peritoneal, 300 J/cm^2) | Detection of photosensitive agent in tissues after 48 hours ([5]; 48 hours after injection) | Retention time in all the tissues compared to m-THPC ([5]; muscle, skin and tumor, FIG. 6) | Detection of photosensitive agent in tissues 144 hours after injection ([5]; 144 hours after injection)
2,3-dihydro-5, 15-Bis(3,5-dihydroxy-1-phenyl)-prohyrin [SIMO1] | 1.75 | 0.45 | 29 | no toxicity was detected | about 20 μg/ml | high incorporation | 3 h | comparable activity | 12 | 40 | reduction of growth of the tumor | no photosensitive agent was detected | shorter | –
Oc1cccc(-c2c3nc(c(-c4cccc(O)c4)c4ccc([nH]4)c(-c4cccc(O)c4)c4nc(c(-c5cccc(O)c5)c5ccc2[nH]5)CC4)C=C3)c1 [m-THPC, reference compound] | – | – | – | – | – | small incorporation | increases to 6 hours | comparable activity | – | – | – | – | – | still detectable
